Experimental data from publication PMC6494879, “Drug resistance emergence in macaques administered cabotegravir long-acting for pre-exposure prophylaxis during acute SHIV infection” (Nature Communications, 2019).
Read-outs that look alike come from different tables or passages of the source.

Tests used:
[1] = system: SIV integrase E92Q/G140R (SIV IN RTV pseudovirus); format: cell-based; settings: E92Q/G140R SIV integrase mutant
[2] = system: SIV integrase Q124R (SIV IN RTV pseudovirus); assay: organism not typed; format: cell-based
[3] = system: SIV integrase A122T (SIV IN RTV pseudovirus); assay: organism not typed; format: cell-based
[4] = system: SIV integrase G118R (SIV IN RTV pseudovirus); format: cell-based; settings: G118R SIV integrase mutant
[5] = system: SIV integrase I72T (SIV IN RTV pseudovirus); assay: organism not typed; format: cell-based
[6] = system: SIV integrase I110V (SIV IN RTV pseudovirus); assay: organism not typed; format: cell-based
[7] = system: SIV integrase E92G (SIV IN RTV pseudovirus)
[8] = for Median CAB: plasma, median of treated macaques
Protocol: (§1) CAB LA (200 mg/mL injectable stock aqueous suspension) was given at a dose of 50 mg kg^−1 under anesthesia by intramuscular injection into the quadriceps. Volumes greater than 1.0 mL were divided into two injection sites.

[9] = time course, day given in the Days column, CAB LA 50 mg/kg i.m. days 11, 39, 67, LLOQ 10 ng ml^-1
Protocol: as §1

[10] = system: HIV-1; settings: read-out: 50% inhibitory concentration (IC50); cited from earlier work

C[C@H]1CO[C@@H]2Cn3cc(C(=O)NCc4ccc(F)cc4F)c(=O)c(O)c3C(=O)N12 [CAB, cabotegravir]
fold-change relative to wild type integrase [1]: > 840 fold
EC50 ([2]; HEK293): 1.22 nM
fold-change relative to wild type integrase ([2]; {}): 1.0 fold
EC50 ([3]; HEK293): 1.51 nM
fold-change relative to wild type integrase ([3]; {}): 1.3 fold
fold-change relative to wild type integrase [4]: > 840 fold
EC50 ([5]; HEK293): 0.96 nM
fold-change relative to wild type integrase ([5]; {}): 0.8 fold
EC50 ([6]; HEK293): 1.27 nM
fold-change relative to wild type integrase ([6]; {}): 1.1 fold
EC50 [7]: 4.2 nM
fold-change relative to wild type integrase [7]: 3.5 fold
time after which plasma CAB was below the limit of detection of the assay ([8]; four of the six animals): 115 to 176 days
Plasma CAB concentration ([8]; macaque 01D520, day 18): 11.2 µg/mL
Plasma CAB concentration ([8]; macaque 01D520, day 25): 7.1 µg/mL
Plasma CAB concentration ([8]; macaque 01D520, day 32): 2.24 µg/mL
Plasma CAB concentration ([8]; macaque 01D520, day 39): 0.239 µg/mL
Plasma CAB concentration ([8]; macaque 01D520, day 46): 6.87 µg/mL
Plasma CAB concentration ([8]; macaque 01D520, day 53): 5.88 µg/mL
Plasma CAB concentration ([8]; macaque 01D520, day 57): 4.57 µg/mL
Plasma CAB concentration ([8]; macaque 01D520, day 67): 0.943 µg/mL
Plasma CAB concentration ([8]; macaque 01D520, day 74): 6.2 µg/mL
Plasma CAB concentration ([8]; macaque 01D520, day 81): 4.17 µg/mL
Plasma CAB concentration ([8]; macaque 01D520, day 88): 2.42 µg/mL
Plasma CAB concentration ([8]; macaque 01D520, day 95): 0.992 µg/mL
Plasma CAB concentration ([8]; macaque 01D520, day 102): 0.432 µg/mL
Plasma CAB concentration ([8]; macaque 01D520, day 106): 0.273 µg/mL
Plasma CAB concentration ([8]; macaque 10D181, day 18): 3.2 µg/mL
Plasma CAB concentration ([8]; macaque 10D181, day 25): 3.88 µg/mL
Plasma CAB concentration ([8]; macaque 10D181, day 32): 2.79 µg/mL
Plasma CAB concentration ([8]; macaque 10D181, day 39): 1.33 µg/mL
Plasma CAB concentration ([8]; macaque 10D181, day 46): 3.45 µg/mL
Plasma CAB concentration ([8]; macaque 10D181, day 53): 5.06 µg/mL
Plasma CAB concentration ([8]; macaque 10D181, day 57): 3.47 µg/mL
Plasma CAB concentration ([8]; macaque 10D181, day 67): 1.51 µg/mL
Plasma CAB concentration ([8]; macaque 10D181, day 74): 2.76 µg/mL
Plasma CAB concentration ([8]; macaque 10D181, day 81): 3.57 µg/mL
Plasma CAB concentration ([8]; macaque 10D181, day 88): 2.78 µg/mL
Plasma CAB concentration ([8]; macaque 10D181, day 95): 1.5 µg/mL
Plasma CAB concentration ([8]; macaque 10D181, day 102): 0.454 µg/mL
Plasma CAB concentration ([8]; macaque 10D181, day 106): 0.227 µg/mL
Plasma CAB concentration ([8]; macaque 33996, day 18): 5.68 µg/mL
Plasma CAB concentration ([8]; macaque 33996, day 25): 6.38 µg/mL
Plasma CAB concentration ([8]; macaque 33996, day 32): 4.05 µg/mL
Plasma CAB concentration ([8]; macaque 33996, day 39): 3.3 µg/mL
Plasma CAB concentration ([8]; macaque 33996, day 46): 5.86 µg/mL
Plasma CAB concentration ([8]; macaque 33996, day 53): 9.39 µg/mL
Plasma CAB concentration ([8]; macaque 33996, day 57): 9.76 µg/mL
Plasma CAB concentration ([8]; macaque 33996, day 67): 1.4 µg/mL
Plasma CAB concentration ([8]; macaque 33996, day 74): 4.57 µg/mL
Plasma CAB concentration ([8]; macaque 33996, day 81): 6.04 µg/mL
Plasma CAB concentration ([8]; macaque 33996, day 88): 3.04 µg/mL
Plasma CAB concentration ([8]; macaque 33996, day 95): 1.43 µg/mL
Plasma CAB concentration ([8]; macaque 33996, day 102): 0.816 µg/mL
Plasma CAB concentration ([8]; macaque 33996, day 106): 0.611 µg/mL
Plasma CAB concentration ([8]; macaque 35451, day 18): 6.34 µg/mL
Plasma CAB concentration ([8]; macaque 35451, day 25): 4.47 µg/mL
Plasma CAB concentration ([8]; macaque 35451, day 32): 1.84 µg/mL
Plasma CAB concentration ([8]; macaque 35451, day 39): 0.819 µg/mL
Plasma CAB concentration ([8]; macaque 35451, day 46): 2.55 µg/mL
Plasma CAB concentration ([8]; macaque 35451, day 53): 4.01 µg/mL
Plasma CAB concentration ([8]; macaque 35451, day 57): 6.17 µg/mL
Plasma CAB concentration ([8]; macaque 35451, day 67): 3.19 µg/mL
Plasma CAB concentration ([8]; macaque 35451, day 74): 4.1 µg/mL
Plasma CAB concentration ([8]; macaque 35451, day 81): 2.89 µg/mL
Plasma CAB concentration ([8]; macaque 35451, day 88): 3.28 µg/mL
Plasma CAB concentration ([8]; macaque 35451, day 95): 2.43 µg/mL
Plasma CAB concentration ([8]; macaque 35451, day 102): 2.21 µg/mL
Plasma CAB concentration ([8]; macaque 35451, day 106): 1.25 µg/mL
Plasma CAB concentration ([8]; macaque CH54, day 18): 5.12 µg/mL
Plasma CAB concentration ([8]; macaque CH54, day 25): 5.14 µg/mL
Plasma CAB concentration ([8]; macaque CH54, day 32): 3.53 µg/mL
Plasma CAB concentration ([8]; macaque CH54, day 39): 1.14 µg/mL
Plasma CAB concentration ([8]; macaque CH54, day 46): 2.99 µg/mL
Plasma CAB concentration ([8]; macaque CH54, day 53): 2.32 µg/mL
Plasma CAB concentration ([8]; macaque CH54, day 57): 3.27 µg/mL
Plasma CAB concentration ([8]; macaque CH54, day 67): 4.33 µg/mL
Plasma CAB concentration ([8]; macaque CH54, day 74): 5.39 µg/mL
Plasma CAB concentration ([8]; macaque CH54, day 81): 5.03 µg/mL
Plasma CAB concentration ([8]; macaque CH54, day 88): 3.45 µg/mL
Plasma CAB concentration ([8]; macaque CH54, day 95): 1.97 µg/mL
Plasma CAB concentration ([8]; macaque CH54, day 102): 1.41 µg/mL
Plasma CAB concentration ([8]; macaque CH54, day 106): 0.707 µg/mL
Plasma CAB concentration ([8]; macaque CJ92, day 18): 6.99 µg/mL
Plasma CAB concentration ([8]; macaque CJ92, day 25): 3.55 µg/mL
Plasma CAB concentration ([8]; macaque CJ92, day 32): 3.13 µg/mL
Plasma CAB concentration ([8]; macaque CJ92, day 39): 2.92 µg/mL
Plasma CAB concentration ([8]; macaque CJ92, day 46): 3.62 µg/mL
Plasma CAB concentration ([8]; macaque CJ92, day 53): 2.88 µg/mL
Plasma CAB concentration ([8]; macaque CJ92, day 57): 3.47 µg/mL
Plasma CAB concentration ([8]; macaque CJ92, day 67): 3.7 µg/mL
Plasma CAB concentration ([8]; macaque CJ92, day 74): 5.46 µg/mL
Plasma CAB concentration ([8]; macaque CJ92, day 81): 6.56 µg/mL
Plasma CAB concentration ([8]; macaque CJ92, day 88): 4.022 µg/mL
Plasma CAB concentration ([8]; macaque CJ92, day 95): 1.93 µg/mL
Plasma CAB concentration ([8]; macaque CJ92, day 102): 1.54 µg/mL
Plasma CAB concentration ([8]; macaque CJ92, day 106): 0.994 µg/mL
Median CAB ([8]; day 18): 6.01 µg/mL
Median CAB ([8]; day 25): 4.805 µg/mL
Median CAB ([8]; day 32): 2.96 µg/mL
Median CAB ([8]; day 39): 1.235 µg/mL
Median CAB ([8]; day 46): 3.535 µg/mL
Median CAB ([8]; day 53): 4.535 µg/mL
Median CAB ([8]; day 57): 4.02 µg/mL
Median CAB ([8]; day 67): 2.35 µg/mL
Median CAB ([8]; day 74): 4.98 µg/mL
Median CAB ([8]; day 81): 4.6 µg/mL
Median CAB ([8]; day 88): 3.16 µg/mL
Median CAB ([8]; day 95): 1.715 µg/mL
Median CAB ([8]; day 102): 1.113 µg/mL
Median CAB ([8]; day 106): 0.659 µg/mL
CAB in plasma at the last measurement on day 204 ([8]; remaining two animals): detectable
Vaginal fluid CAB concentration in treated macaques ([9]; macaque 10D181): 0.009 µg/mL
Vaginal fluid CAB concentration in treated macaques ([9]; macaque 33996): 0.009 µg/mL
IC50 [10]: ~0.22 nM
